Measurements taken from ChEMBL document CHEMBL1149379, “Pyrrolo(iso)quinoline derivatives as 5-HT(2C) receptor agonists” (Bioorg Med Chem Lett, 2006).
pEC50, pKi: −log10 of the molar value. Active and inactive are the calls of the source. No cut-off for these calls is given here.

Assays:
[1] = biological target: T1, 5-hydroxytryptamine receptor 2A (Homo sapiens, UniProt P28223); assay: Binding to human 5HT2A receptor expressed in CHO cells relative to 5HT; type: cell-based
[2] = tested on: Rattus norvegicus; assay: Reduction in food intake in food-deprived rats after 4 hrs of administration of 3 mg/kg; type: functional, organism-based; parameters: dose 3 mg/kg
[3] = biological target: T2, 5-hydroxytryptamine receptor 2C (Homo sapiens) (UniProt P28335); assay: Binding to human 5HT2C receptor expressed in CHO cells relative to 5HT; type: cell-based
T2 sequence (whole entry): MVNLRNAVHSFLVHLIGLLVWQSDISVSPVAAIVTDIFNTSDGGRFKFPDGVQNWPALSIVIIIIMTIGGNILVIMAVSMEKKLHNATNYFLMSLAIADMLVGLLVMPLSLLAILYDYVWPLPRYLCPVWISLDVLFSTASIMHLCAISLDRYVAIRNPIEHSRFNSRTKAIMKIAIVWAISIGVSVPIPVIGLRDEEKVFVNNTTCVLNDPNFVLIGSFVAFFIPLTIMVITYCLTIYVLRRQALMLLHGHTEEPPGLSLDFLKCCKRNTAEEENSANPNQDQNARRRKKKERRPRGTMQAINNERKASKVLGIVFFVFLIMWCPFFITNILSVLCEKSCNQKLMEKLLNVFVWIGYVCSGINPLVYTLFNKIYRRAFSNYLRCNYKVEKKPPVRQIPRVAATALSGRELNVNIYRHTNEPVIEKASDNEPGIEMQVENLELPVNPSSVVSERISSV

[4] = biological target: T3, 5-hydroxytryptamine receptor 2C (Homo sapiens, UniProt P28335); assay: Displacement of [3H]5-HT from human 5HT2C
T3 sequence (P28335 whole entry): T2 sequence (whole entry)

[5] = biological target: T4, 5-hydroxytryptamine receptor 2B (Homo sapiens, UniProt P41595); assay: Binding to human 5HT2B receptor expressed in CHO cells relative to 5HT; type: cell-based
T4 sequence (P41595 whole entry): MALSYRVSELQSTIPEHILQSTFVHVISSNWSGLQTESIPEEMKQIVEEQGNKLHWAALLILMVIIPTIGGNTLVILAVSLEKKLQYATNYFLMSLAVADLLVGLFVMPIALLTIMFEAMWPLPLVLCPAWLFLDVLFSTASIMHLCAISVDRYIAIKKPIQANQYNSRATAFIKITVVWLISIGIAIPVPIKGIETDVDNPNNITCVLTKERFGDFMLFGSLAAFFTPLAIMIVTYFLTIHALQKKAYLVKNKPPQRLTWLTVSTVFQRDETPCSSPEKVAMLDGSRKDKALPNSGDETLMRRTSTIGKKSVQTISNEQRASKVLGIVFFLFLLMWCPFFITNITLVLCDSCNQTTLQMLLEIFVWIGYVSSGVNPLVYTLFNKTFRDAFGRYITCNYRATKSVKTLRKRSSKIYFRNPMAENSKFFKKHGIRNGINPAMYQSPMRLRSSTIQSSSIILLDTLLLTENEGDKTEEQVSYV

[6] = biological target: T4, 5-hydroxytryptamine receptor 2B; assay: Binding to human 5HT2B receptor expressed in CHO cells; type: cell-based
[7] = biological target: T1, 5-hydroxytryptamine receptor 2A; assay: Displacement of [125I]DOI from human 5HT2A
[8] = biological target: T1, 5-hydroxytryptamine receptor 2A; assay: Binding to human 5HT2A receptor expressed in CHO cells; type: cell-based
[9] = organism: Rattus norvegicus; assay: Blocking of anorectic effect in rats pre-treated with SB-242084; type: functional, organism-based
[10] = biological target: T3, 5-hydroxytryptamine receptor 2C; assay: Binding to human 5HT2C receptor expressed in CHO cells; type: cell-based
[11] = biological target: T4, 5-hydroxytryptamine receptor 2B; assay: Displacement of [3H]5-HT from human 5HT2B

T1 sequence (P28223 whole entry): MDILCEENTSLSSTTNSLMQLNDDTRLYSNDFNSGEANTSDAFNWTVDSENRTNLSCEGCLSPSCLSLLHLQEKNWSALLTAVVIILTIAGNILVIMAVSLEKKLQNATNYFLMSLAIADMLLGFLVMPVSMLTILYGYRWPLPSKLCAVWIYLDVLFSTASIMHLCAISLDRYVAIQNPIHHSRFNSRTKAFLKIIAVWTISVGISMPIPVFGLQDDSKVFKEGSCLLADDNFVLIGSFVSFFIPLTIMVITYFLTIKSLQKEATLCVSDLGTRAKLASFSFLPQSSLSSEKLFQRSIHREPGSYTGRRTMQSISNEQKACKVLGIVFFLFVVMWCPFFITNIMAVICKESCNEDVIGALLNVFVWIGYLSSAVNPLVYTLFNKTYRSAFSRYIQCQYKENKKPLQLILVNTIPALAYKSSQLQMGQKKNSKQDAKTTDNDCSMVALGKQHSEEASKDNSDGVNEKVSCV

Row | Structure (SMILES) | Efficacy [1] | Activity [2] | Efficacy [3] | pKi [4] | Efficacy [5] | pEC50 [6] | pKi [7] | pEC50 [8] | Activity [9] | pEC50 [10] | pKi [11]
1 | NCCc1c[nH]c2ccc(O)cc12 | 98% | – | – | – | – | – | – | – | – | – | –
2 | CCN[C@@H](C)Cc1cccc(C(F)(F)F)c1 | – | Active | – | – | – | – | – | – | – | – | –
3 | C[C@H](N)Cn1ccc2ccc3ncccc3c21 | 88% | Active | 99% | 8.80 | 65% | 8.96 | 7.51 | 7.49 | Dose-dependent effect | 8.54 | –
4 | C[C@H](N)Cn1ccc2ccc3cnccc3c21 | 63% | – | 93% | 7.14 | 70% | 6.82 | 5.98 | < 6.00 | – | 6.53 | 6.11
5 | C[C@H](N)Cn1ccc2cc(Cl)c3ncccc3c21 | 85% | – | 101% | 8.62 | 61% | 8.68 | 7.54 | 7.44 | – | 8.16 | 7.74
6 | C[C@@H](Cn1ccc2ccc3ncccc3c21)NCc1ccc2c(c1)OCO2 | 69% | – | 98% | 7.80 | 71% | 7.70 | 6.40 | 6.44 | – | 7.38 | 6.86
7 | C=CCN[C@@H](C)Cn1ccc2ccc3ncccc3c21 | 54% | – | 92% | 7.07 | 70% | 7.04 | 5.94 | 6.11 | – | 6.59 | 6.34
8 | C[C@@H](Cn1ccc2ccc3ncccc3c21)NCC1CCCCC1 | 32% | – | 88% | 7.11 | 67% | 6.89 | 6.03 | < 6.00 | – | 6.46 | 6.20
9 | Cc1ccccc1CN[C@@H](C)Cn1ccc2ccc3ncccc3c21 | 49% | – | 87% | 6.77 | 64% | 6.89 | 5.77 | < 6.00 | – | 6.66 | 6.13
10 | C[C@@H](Cn1ccc2ccc3ncccc3c21)NCc1ccc2ccccc2c1 | 56% | – | 99% | 7.80 | 76% | 7.57 | 6.74 | 6.65 | – | 7.28 | 6.87
11 | C[C@@H](Cn1ccc2ccc3ncccc3c21)NCc1ccccc1Cl | 58% | – | 95% | 7.41 | 72% | 7.36 | 6.17 | 6.20 | – | 7.13 | 6.42
12 | C[C@H](N)Cn1ccc2ccc3cccnc3c21 | 41% | – | 39% | 7.57 | 60% | 7.35 | 6.64 | 6.35 | – | 7.01 | 6.94
13 | C[C@H](N)Cn1ccc2ccc3ccncc3c21 | 67% | – | 98% | 7.43 | 67% | 7.21 | 6.64 | 6.33 | – | 7.14 | 6.68
14 | C[C@@H](Cn1ccc2ccc3ncccc3c21)NCc1ccccc1 | 39% | – | 86% | 7.11 | 70% | 7.01 | 6.07 | < 6.00 | – | 6.70 | 6.29
15 | C[C@H](N)Cn1ccc2cc(F)c(Cl)cc21 | 72% | – | 93% | – | 71% | – | – | – | – | – | –
16 | COc1ccccc1CN[C@@H](C)Cn1ccc2ccc3ncccc3c21 | 24% | – | 77% | 6.77 | 41% | 6.34 | 5.80 | < 6.00 | – | 6.26 | 6.05
17 | Clc1cccc(N2CCNCC2)c1 | 41% | – | 83% | – | 33% | – | – | – | – | – | –
